Measurements: patent US7097860B2, “Method and composition for treatment of inflammatory and inflammation-related disorders” (priority 2001, dated 2006)

Columns and labels:
[1] = system: inflammatory disorders; experiment: Magnesium sulfate in distilled water by intraperitoneal injection in a cow; type: in vivo; settings: approximately 40 grams, cow of 500 kg
Excerpt: After several years of using magnesium salts, the dose was reduced to an average dose of 3–20 grams for a 500 kg cow to get the same therapeutic effect. Therefore, the intraperitoneal administration, compared to other methods of drug administration, is a safe method because it avoids the toxic side effects through first-pass hepatic metabolism which permits the organism to create the abundance of magnesium used for recovery and healing. In fact, the administered dose can be higher than the traditional toxic level doses.

[2] = system: cow; experiment: Solution / magnesium in complicated cases with intoxication; type: in vivo
Experimental: For example, during calving of weak and strong contractions of the uterus, atony of the rumen, reticulum and abamasum, colic and constipation. In fact, after administration of the solution, the effect can be seen even in complicated cases when intoxication takes place, the temperature of the body is increased, and there is loss of appetite. In this situation, the cow starts to ruminate and the general condition improves in 10 to 15 minutes after administration of the solution.

[3] = system: parturient paresis in cows (milk fever), ketosis (acetonomia), and paraplegia gravidarum; experiment: Methenamine along with magnesium salts in parturient paresis, ketosis and paraplegia gravidarum; type: in vivo
Excerpt: Methenamine breaks down to formaldehyde and ammonia in areas of inflammation where formaldehyde acts as anti-inflammatory and bactericidal agent. Methenamine also increases membrane permeability, which helps to eliminate antibacterial toxic material from the body. […] After the fifteen minutes of administration, the condition of cows that had parturient paresis (milk fever), ketosis (acetonomia) started to improve and the cows began rumination again.

[4] = system: Dogs; settings: up to 600 mg/kg IV, single dose; cited from earlier work
[5] = system: rats; settings: up to 600 mg/kg IV, single dose; cited from earlier work
[6] = system: rats; settings: reproduction studies in rats; cited from earlier work
[7] = system: rabbits; settings: reproduction studies in rabbits; cited from earlier work
[8] = powder; cited from earlier work
[9] = system: monkeys; settings: monkeys from six months old, double the normal dose; cited from earlier work
[10] = after administration of magnesium

For `O.O.O.O.O.O.O.O=S(=O)([O-])[O-].[Mg+2]` [magnesium sulfate, magnesium sulfate (MgSO4×7H2O)], the side effects [1] was “without any side effects” and the treatment outcome [1] was “successful treatment”.
For `[Mg+2]` [magnesium], the “day of complete recovery” value [2, 10] was “seventh”, the “day on which the general condition improved” value [2, 10] was “third” and the “day of estrus after administration” value ([2]; cows that previously did not have estrus) was “seventh”.
For `C1N2CN3CN1CN(C2)C3` [methenamine, methenamine (hexamethylenetetramine, C6H12N4)], the treatment outcome ([3]; 20 grams per 500 kg, along with magnesium salts, other therapies unsuccessful) is listed as “successful treatment”, the “time after administration at which condition started to improve and rumination began” value ([3]; parturient paresis (milk fever), ketosis (acetonomia)) is listed as “fifteen” and the toxic effects [4] is listed as “without evidence of toxic effects”. For the same molecule, the toxic effects [5] was “without evidence of toxic effects”, the “harm to the fetus” value [6] was “have not revealed evidence of harm to the fetus” and the “harm to the fetus” value [7] was “have not revealed evidence of harm to the fetus”. For the same molecule, the solubility in water [8] was “very soluble in water”.
For `C1N2CN3CN1CN(C2)C3` [Methenamine hippurate], the adverse effects [9] is listed as “without adverse effects”.
